Experiments:
[1] = AE frequency, riociguat group, cited from earlier work
sGC protein = target: T1, sGC protein (Homo sapiens, UniProt Q02108+Q02153); assay: cGMP detection experiment in LNCap cells; type: cell-based; details: cGMP production in LNCap cells; 20 µM DETA-NO pre-incubation; relative to compound A
T1 construct: LNCap is a human prostate cancer cell line that expresses sGC protein; host or cells: LNCap (human prostate cancer cell line)
T1 sequence (Q02108 1-690): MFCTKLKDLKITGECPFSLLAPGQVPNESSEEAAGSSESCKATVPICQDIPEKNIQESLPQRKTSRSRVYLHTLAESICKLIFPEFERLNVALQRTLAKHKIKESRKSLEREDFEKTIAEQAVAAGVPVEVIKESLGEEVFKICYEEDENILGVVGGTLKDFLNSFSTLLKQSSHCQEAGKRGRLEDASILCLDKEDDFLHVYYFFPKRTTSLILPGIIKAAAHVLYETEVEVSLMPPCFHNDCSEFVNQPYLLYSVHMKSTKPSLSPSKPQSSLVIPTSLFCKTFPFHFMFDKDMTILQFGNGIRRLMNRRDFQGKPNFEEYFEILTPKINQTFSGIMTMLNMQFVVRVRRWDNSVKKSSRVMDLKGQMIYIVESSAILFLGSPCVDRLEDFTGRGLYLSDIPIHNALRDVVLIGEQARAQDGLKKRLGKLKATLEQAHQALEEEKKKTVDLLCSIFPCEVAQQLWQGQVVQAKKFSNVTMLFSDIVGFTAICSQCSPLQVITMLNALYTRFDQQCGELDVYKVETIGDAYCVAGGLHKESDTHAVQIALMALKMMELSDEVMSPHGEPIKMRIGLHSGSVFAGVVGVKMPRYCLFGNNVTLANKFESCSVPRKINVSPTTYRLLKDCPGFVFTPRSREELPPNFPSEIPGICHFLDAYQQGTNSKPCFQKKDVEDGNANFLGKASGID
T1 sequence (Q02153 1-619): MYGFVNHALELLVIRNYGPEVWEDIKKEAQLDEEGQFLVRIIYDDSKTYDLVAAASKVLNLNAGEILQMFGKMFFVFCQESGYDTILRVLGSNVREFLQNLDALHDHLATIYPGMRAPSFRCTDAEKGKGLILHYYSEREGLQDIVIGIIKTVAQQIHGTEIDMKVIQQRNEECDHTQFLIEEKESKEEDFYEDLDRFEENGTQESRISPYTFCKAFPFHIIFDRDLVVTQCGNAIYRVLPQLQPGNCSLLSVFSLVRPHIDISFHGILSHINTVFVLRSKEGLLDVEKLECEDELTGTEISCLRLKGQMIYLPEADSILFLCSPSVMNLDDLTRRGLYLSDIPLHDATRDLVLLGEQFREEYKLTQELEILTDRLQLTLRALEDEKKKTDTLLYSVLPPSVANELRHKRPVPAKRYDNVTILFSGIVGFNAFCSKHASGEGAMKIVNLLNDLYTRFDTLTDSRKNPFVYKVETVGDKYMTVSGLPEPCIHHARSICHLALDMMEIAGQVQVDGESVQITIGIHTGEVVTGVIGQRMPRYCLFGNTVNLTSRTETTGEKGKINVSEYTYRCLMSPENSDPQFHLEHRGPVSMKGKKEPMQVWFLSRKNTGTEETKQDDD
Protocol: LNCap is a human prostate cancer cell line that expresses sGC protein. […] On the day of the detection, the cells were reselected in assay buffer (EBSS assay buffer+[…] of MgCl2+10 mM HEPES+0.05% BSA) at a density of 2 × 10^5/mL. 0.5 mM IBMX was added to prevent cGMP degradation.
The cells were pre-incubated with 20 µM diethylenetriamine/nitric oxide (DETA-NO) at 37°C for 30 minutes, and then different concentrations of the compounds were added. The mixture was further incubated at room temperature for 1 h. After the incubation was completed, the reaction was terminated, and intracellular cGMP levels were measured according to the instructions for the CisBio kit (Cisbio, 62GM2PEC).

[2] = Pharmacokinetic test in rats (inhalation administration); details: for Lung AUC0-t / Lung Cmax / Lung AUC0-t/plasma AUC0-t: SD rats, single inhalation dose 0.03 mg/kg; for Lung AUC0-t / Lung Cmax: lung tissue
Protocol: Experimental objective: In this experiment, the test compound was administered as a single dose via inhalation to SD rats, and the concentrations of the test compound in rat plasma and lungs were determined to evaluate the pharmacokinetic characteristics and bioavailability of the test compound in the rats.
Experimental animals: Male SD rats, 180-200 g, purchased from Chengdu Dossy Experimental Animals Co., Ltd.
Experimental method: On the day of the experiment, SD rats were randomly assigned into 6 groups according to body weight (for each compound), with 2 rats in each group. The rats were fasted with water available for 12 to 16 hours one day before the administration, and were fed 4 hours after the administration.
Plasma sampling: before and after the administration, blood was taken from the orbits of the rats under isoflurane anaesthesia, and placed in an EDTAK2 centrifuge tube. Centrifugation was performed at 6000 rpm at 4°C for 10 min, and the plasma was collected.
Lung tissue sampling: Animals from each group were euthanised by CO2 inhalation at 0.25, 0.5, 1, 4, 7 and 24 hours after the administration. Then, the animal was dissected to collect lung tissue, which was rinsed with physiological saline, dried with filter paper, weighed in the balance, kept on wet ice and homogenised within 2 hours using a 6-fold volume (i.e., 6 mL per 1 g of tissue) of homogenisation buffer (50% methanol-water).
Before analysis and detection, all samples were stored at -60°C. The samples were analysed quantitatively by LC-MS/MS.

[3] = target: T2, soluble guanylate cyclase (sGC) (Homo sapiens, UniProt Q02108+Q02153); assay: In vitro detection experiment for soluble guanylate cyclase (sGC) activity (TR-FRET);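 also: enzyme reaction started with GTP and run for 60 min at 37°C, followed by a 60 min detection step at room temperature, with EC50 obtained by nonlinear curve fitting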
T2 sequence (Q02108 1-690): T1 sequence (Q02108 1-690)
T2 sequence (Q02153 1-619): T1 sequence (Q02153 1-619)
Protocol: First, 100 nL of the compounds at different concentrations were transferred to a 384-well reaction plate (Greiner, Cat. No. 784075) using Echo 655 (LABCYTE, Cat # 655), with the final DMSO concentration of 1% in the reaction mixture; 2 µL of sGC (ICE, Cat. No. S2304F-H07SH2) was added to a 384-well reaction plate, and the mixture was centrifuged at 1000 rpm for 1 min; and then 1 µL of DETA NONOate was added, and the mixture was incubated at 37°C for10 min. After the incubation was completed, 2 µL of GTP was added, and the mixture was centrifuged at 1000 rpm for 1 min and reacted at 37°C for 60 min. In the reaction system, the final concentrations of sGC, GTP, and DETA NONOate were 1.5 nM, 5 µM, and 100 µM, respectively. After the reaction was completed, 5 µL of the test mixture (PerkinElmer, Cat. No. 62GM2PEG) was added and incubated at room temperature for 60 min. The TR-FRET signal (Ratio: 665/620 nm) was read using a microplate reader (BMG, Cat. No. PHERAstar FSX). A nonlinear regression curve was fitted using GraphPad Prism software, and EC50 values were calculated. Compound A (Example 1 in WO 2010065275) was used as a positive reference compound.

[4] = 12-week PATENT-1 study (placebo 2%)

Row | EC50 (sGC protein) | Lung AUC0-t [2] | Lung Cmax [2] | Lung AUC0-t/plasma AUC0-t [2] | SMILES | further results
1 | – | – | – | – | COC(=O)N(C)c1c(N)nc(-c2nn(Cc3ccccc3F)c3ncccc23)nc1N [riociguat, Riociguat] | constipation ([1]; 12-week PATENT-1 study (placebo 1%)): 5%; anaemia [1, 4]: 7%; gastrooesophageal reflux disease [1, 4]: 5%; hypotension ([1]; 12-week PATENT-1 study (placebo 4%)): 10%; vomiting ([1]; 12-week PATENT-1 study (placebo 7%)): 10%; diarrhoea ([1]; 12-week PATENT-1 study (placebo 8%)): 12%; dizziness ([1]; 12-week PATENT-1 study (placebo 13%)): 20%
2 | < 500 nM | – | – | – | CC(C)(Cc1csc(C2(C)C(=O)Nc3nc(-n4nc(CCC(F)(F)C(F)(F)F)c5c(F)cccc54)nc(N)c32)n1)C(=O)O (single isomer, unassigned) [Compound 43-1] | –
3 | < 500 nM | 5432 ng·h/mL | 2545 ng/mL | – | CC(C)(Cc1csc(C2(C)C(=O)Nc3nc(-n4nc(Cc5ccccc5F)c5ncc(F)cc54)nc(N)c32)n1)C(=O)O (single isomer, unassigned) [Compound 35-1] | –
4 | < 500 nM | – | – | – | CC(C)(Cc1csc(C2(C)C(=O)Nc3nc(-n4nc(Cc5ccccc5F)c5cc(Cl)ccc54)nc(N)c32)n1)C(=O)O (single isomer, unassigned) [Compound 32-1] | –
5 | < 500 nM | – | – | – | CC(C)(Cc1csc([C@]2(C)C(=O)Nc3nc(-n4c(=O)n(CCC(F)(F)C(F)(F)F)c5c(F)cccc54)nc(N)c32)n1)C(=O)O [Compound 14-1] | –
6 | < 500 nM | 608 ng·h/mL | 1183 ng/mL | 97.9 | CC(C)(Cc1csc([C@]2(C)C(=O)Nc3nc(-n4c(=O)n(CCC(F)(F)C(F)(F)F)c5cc(F)ccc54)nc(N)c32)n1)C(=O)O [Compound 31-1] | –
7 | < 500 nM | – | – | – | CC(C)(Cc1csc(C2(C)C(=O)Nc3nc(-n4c(=O)n(Cc5ccccc5F)c5c(F)cccc54)nc(N)c32)n1)C(=O)O (single isomer, unassigned) [Compound 15-1] | –
8 | < 500 nM | – | – | – | CC(C)(Cc1csc(C2(C)C(=O)Nc3nc(-n4nc(Cc5ccccc5F)c5c(F)cccc54)nc(N)c32)n1)C(=O)O (single isomer, unassigned) [Compound 41-1] | –
9 | 3220 nM | 220 ng·h/mL | 273 ng/mL | – | CC(C)(Cc1csc([C@]2(C)C(=O)Nc3nc(-c4nn(CCC(F)(F)C(F)(F)F)c5ncccc45)nc(N)c32)n1)C(=O)O [Control compound 1, reference compound] | Kp ([2]; male, SD, rat, lung and plasma, inhaled or intranasal, 0.03 mg/kg): 29.1
10 | – | 10133 ng·h/mL | 4067 ng/mL | 49.1 | CC(C)(Cc1csc(C2(C)C(=O)Nc3nc(-n4nc(Cc5cccc(F)c5F)c5ncc(F)cc54)nc(N)c32)n1)C(=O)O (single isomer, unassigned) [Compound 36-1] | –
11 | – | 3626 ng·h/mL | 2979 ng/mL | 65 | CC(C)(Cc1csc([C@]2(C)C(=O)Nc3nc(-c4nc(CCC(F)(F)C(F)(F)F)n5ncccc45)nc(N)c32)n1)C(=O)O [Compound 3-1] | –

Row | SMILES | EC50 (sGC protein) | Lung AUC0-t [2] | Lung Cmax [2] | Lung AUC0-t/plasma AUC0-t [2] | further results
12 | CC(C)(Cc1coc(C2(C)C(=O)Nc3nc(-n4c(=O)n(CC5CCCCC5)c5c(F)cccc54)nc(N)c32)n1)C(=O)O (stereo not drawn) [Trifluoroacetate of compound 27] | < 500 nM | – | – | – | EC50 [3]: < 20 nM
13 | CC(C)(Cc1csc([C@]2(C)C(=O)Nc3nc(-n4nc(CCC(F)(F)C(F)(F)F)c5cc(F)ccc54)nc(N)c32)n1)C(=O)O [Compound 17-1] | < 500 nM | 2021 ng·h/mL | 1754 ng/mL | 48.4 | –
14 | CC(C)(Cc1csc(C2(C)C(=O)Nc3nc(-n4nc(CCC(F)(F)C(F)(F)F)c5cc(Cl)ccc54)nc(N)c32)n1)C(=O)O (single isomer, unassigned) [Compound 4-1] | < 500 nM | 2462 ng·h/mL | 2352 ng/mL | 77.1 | –

— patent publication EP4725948A1, “PYRROLO[2,3-D]PYRIMIDIN-4-AMINE DERIVATIVE AND USE THEREOF IN MEDICINE” (Haisco Pharmaceutical Group Co., Ltd., priority 2023, dated 2024)
